Marks after values point to notes of the source that are not given here.
Columns and labels:
Format in all cases: in vivo
Plasmodium chabaudi [1] = test: 4-day test, P. chabaudi (10^7 pRBC i.v.) in pantetheinase-deficient A/J mice, blood parasitemia days 4 and 5; conditions: for effect of addition of Cys on inhibition of parasitemia versus additive effect of the two compounds: Cys 170 mg/kg added to ART (0.2 or 0.5 mg/kg) or DHA (0.15 or 0.3 mg/kg); for Inhibition of parasitemia Day 4 / Inhibition of parasitemia Day 5: days 0-3; for symptoms of disease (ruffled fur, lethargy): mice receiving both Cys and ART/DHA, compared to PBS or only one compound; for inhibition of parasitemia compared to PBS-treated controls: ART 0.2 mg/kg alone
Description: (§1) A/J and C57BL/6 (B6) mice were purchased from the Jackson Laboratories (Bar Harbor, Me.) and were housed at McGill University according to the guidelines of the Canadian Council on Animal Care. An LDH virus-free isolate of P. chabaudi AS was maintained by weekly passage in A/J mice. Mice were infected intravenously into the tail vein (i.v.) with 10^6 or 10^7 pRBC suspended in pyrogen-free saline. Following infection, the percentage of pRBC was determined daily on thin blood smears stained with Dif-Quik™ (Dade Behring, Newark, Del.), as described (Fortin A, et al. (2001) Proc Natl Acad Sci USA 98: 10793-10798).
(§2) Cysteamine hydrochloride (Sigma, Burlington ON) was prepared in PBS. Chloroquine hydrochloride, artesunate and dihydroartemisinin were provided by Dafra Pharmaceuticals; chloroquine was prepared in PBS, artesunate and DHA were prepared in 5% sodium bicarbonate and diluted in water to appropriate concentrations. All solutions were prepared fresh daily, filter sterilized and injections were performed intra-peritoneally (i.p) or subcutaneously (s.c.) for 4 days or according to treatment regimen. Mice were weighed prior to treatment to determine appropriate doses and injection volumes ranged from 100-400 μL per mouse. In the case of animals treated with two drugs, artemisinin derivatives were administered first (due to the short half life of cysteamine), followed by cysteamine 5-10 minutes later on alternate sides. Untreated control animals were injected with PBS alone.
(§3) Groups with normally distributed data points were compared using parametric unpaired t-tests, while groups with non-Gaussian distributions were compared using non-parametric Mann-Whitney tests. Survival differences were analyzed using the Log-Rank test. […] Standard error of percent inhibition was calculated from individual mice compared to the mean parasitemia level of the control group.
(§4) The effect of Cys on the potency and efficacy of the anti-malarial artemisinin derivatives was tested. […] Synergy (Tallarida R J (2001) J Pharmacol Exp Ther 298: 865-872) is defined as a total anti-malarial activity (reduction in blood parasitemia compared to untreated controls in a standard 4-day test) of the two compounds administered together being greater than the sum of the independent activities of the two compounds given alone. We tested combinations of Cys and either artesunate (ART) or dihydroartemisinin (DHA), the bioactive form of artemisinin. Pantetheinase-deficient mice were infected with P. chabaudi (10^7 pRBC, i.v.) and treated with Cys (170 mg/kg) and/or sub-optimal doses of ART (0.2 or 0.5 mg/kg) (FIG. 3A) or DHA (0.15 or 0.3 mg/kg) (FIG. 3B) from day 0-3 and parasitemia was monitored on days 4 and 5. […] Potentiation of the anti-malarial activity of ART (0.5 mg/kg) by Cys was also clearly evident in these C57BL/6 mice at both days 4 and 5 post-infection, with combined treatment causing a 65-71% reduction in parasitemia compared to PBS controls, greater than either compound tested alone (13-29%) (TABLE 1).
It was subsequently examined whether Cys potentiation of ART was dose dependent. Initially, Cys doses of 60, 100, 140 and 180 mg/kg were tested with a sub-optimal ART dose of 0.2 mg/kg. The drugs were administered from day 0-3 post infection, parasitemia was counted at day 4 and day 5 and the percent inhibition was calculated compared to PBS-treated controls (FIG. 4A). At 0.2 mg/kg, ART alone inhibits parasitemia by ˜20% (day 4) and 40% (day 5) while inhibition by Cys alone was partially dose dependent (varying between 10% and 25%). […] It was also assessed whether Cys could potentiate low doses of artesunate which, given alone, have no significant effect on parasitemia. In this experiment, Cys (170 mg/kg) was administered in combination, or not, with increasing doses of ART (0.05, 0.1, 0.2, 0.4 mg/kg) in the same 4-day experimental protocol.

Plasmodium chabaudi [2] = test: Progression of P. chabaudi infection (10^6 pRBC i.v.) in pantetheinase-sufficient B6 mice
Description: as §1, §2
To investigate whether the effects on parasite burden over the course of infection would also be observed with a pantetheinase-sufficient mouse strain, a similar experiment was performed using female B6 mice. Groups of mice were infected with 10^6 P. chabaudi pRBC i.v. and treated with PBS, 1 mg/kg or 30 mg/kg of Art, or 1 mg/kg or 30 mg/kg of Art plus 60 mg/kg of Cys for 4 days. […] As in A/J mice, the effect of Cys addition to 1 mg/kg of Art has a clear effect on early parasite replication at day 6 (FIG. 6B). […] B6 mice were able to completely clear parasite burdens and survive the infection, even in the control PBS-treated group.

Plasmodium chabaudi [3] = test: Progression, resolution and survival of lethal P. chabaudi infection (10^6 pRBC i.v.) in A/J mice
Description: as §1, §2
It was investigated if low dose Cys could potentiate standard doses of ART that show therapeutic activity in vivo and concurrently determined possible long-term effects on patent parasitemia, resolution of infection and survival in a lethal infection model. In this protocol, mice were infected with 10^6 pRBC P. chabaudi (i.v.) and treated with Cys (60 mg/kg) and/or ART (0.5, 1, 2, 5 and 10 mg/kg) for 4 days (days 0-3), while blood parasitemia and survival were followed for 22 days. Control animals treated with either PBS or Cys alone (60 mg/kg) developed high parasite burdens, which peaked at day 6, and all mice succumbed to the infection by day 7 (FIGS. 5A and 5C). […] Likewise, although all mice treated with 0.5 mg/kg ART succumbed to the infection early (day 8), mice additionally receiving Cys survived until day 9; moreover, addition of Cys to 1.0 mg/kg ART completely rescued animals from lethality of infection, with 100% survival in this group (FIGS. 5B, 5C).

Plasmodium chabaudi [4] = test: 4-day test, P. chabaudi (10^7 pRBC i.v.) in pantetheinase-sufficient C57BL/6 mice, blood parasitemia days 4 and 5; conditions: for Inhibition of parasitemia Day 4 / Inhibition of parasitemia Day 5: days 0-3
Description: as §1, §2, §3, §4

Plasmodium berghei ANKA = Plasmodium berghei ANKA infection (cerebral malaria model) in C57BL/6J mice, parasitemia and survival
Description: FIGS. 8A and 8B show the results of two independent experiments on the effect of cysteamine and artesunate combinations on the progression of Plasmodium berghei ANKA infection (parasitemia). Groups of 5 adult 18-20 g C57BL/6J males and females were infected intravenously with 1×10^6 erythrocytes parasitized with P. berghei ANKA at time “0”. Two hours later, mice were injected i.p with either Artemisinin alone or with Artemisinin/Cysteamine combinations (at the indicated concentrations in mg/kg body weight). In the case of the latter, Artemisinin was injected first in one quadrant, and cysteamine was injected second, 10-15 minutes later in another quadrant. The drug treatment was further repeated at days 1, 2 and 3 post-infection to emulate the standard 4-day test used in anti-malarial drug discovery. Starting at day 5, blood was collected, thin blood smears were prepared, and parasitemia was determined (400 erythrocytes counted, expressed as percentage parasitized erythrocytes). Error bars show standard deviations on the mean; and
FIGS. 9A and 9B show the results of two independent experiments on the effect of cysteamine and artesunate combinations on the survival of Plasmodium berghei ANKA-infected mice. Infection and drug administration were performed as described above for FIGS. 8A and 8B. Animals were monitored for the appearance and severity of cerebral symptoms (CM phase, shown as rectangle in graph), and moribund animals were euthanized, and time of death was recorded.
Intravenous infection with Plasmodium berghei ANKA is an accepted mouse model of cerebral malaria (CM) (Hunt, N. H. et al. 2006, Int. J. Parasitol. 36: 569-582). The infection causes the following pathology. First, there is appearance of blood parasitemia, starting at days 3 or 4, which can go up to 10% by day 7-8. Starting at day 5-6, there is emergence of cerebral symptoms caused by permeability of the blood brain barrier, concomitant to trapping of parasitized red cells in the microvasculature and acute pathological host inflammatory response in situ. This cerebral phase quickly progresses from tremors, to paralysis, to coma, and is uniformly lethal in mice by days 8-10. In this model, progress of infection and possibly drug effects may be monitored by a) appearance and intensity of blood parasitemia (between days 5-8), b) appearance of cerebral symptoms, and c) lethality.

[5] = A/J mice, DHA 0.15 mg/kg + cysteamine 170 mg/kg i.p.
[6] = A/J mice, DHA 0.3 mg/kg + cysteamine 170 mg/kg i.p.
[7] = A/J mice, artesunate 0.2 mg/kg + cysteamine 170 mg/kg i.p.
[8] = A/J mice, artesunate 0.2 mg/kg alone
[9] = A/J mice, artesunate 0.5 mg/kg + cysteamine 170 mg/kg i.p.
[10] = A/J mice, artesunate 0.5 mg/kg alone
[11] = artesunate 0.5 mg/kg + cysteamine 170 mg/kg i.p.

C[C@@H]1CCC2[C@@H](C)[C@H](O)O[C@@H]3O[C@]4(C)CCC1C23OO4 (stereo partly drawn) [DHA, dihydroartemisinin]
effect of addition of Cys on inhibition of parasitemia versus additive effect of the two compounds (Plasmodium chabaudi [1]; A/J mice): synergistic effect
Inhibition of parasitemia Day 4 (Plasmodium chabaudi [1]; [5]): 56* % PBS control
Inhibition of parasitemia Day 5 (Plasmodium chabaudi [1]; [5]): 46* % PBS control
Inhibition of parasitemia Day 4 (Plasmodium chabaudi [1]; A/J mice, DHA 0.15 mg/kg alone): 22 % PBS control
Inhibition of parasitemia Day 5 (Plasmodium chabaudi [1]; A/J mice, DHA 0.15 mg/kg alone): 13 % PBS control
Inhibition of parasitemia Day 4 (Plasmodium chabaudi [1]; [6]): 80 % PBS control
Inhibition of parasitemia Day 5 (Plasmodium chabaudi [1]; [6]): 71* % PBS control
Inhibition of parasitemia Day 4 (Plasmodium chabaudi [1]; A/J mice, DHA 0.3 mg/kg alone): 50 % PBS control
Inhibition of parasitemia Day 5 (Plasmodium chabaudi [1]; A/J mice, DHA 0.3 mg/kg alone): 40 % PBS control
symptoms of disease (ruffled fur, lethargy) (Plasmodium chabaudi [1]): fewer symptoms of disease

C[C@H]1[C@H](OC(=O)CCC(=O)O)O[C@@H]2O[C@@]3(C)CC[C@H]4[C@H](C)CC[C@@H]1[C@@]24OO3 [Artesunate, artesunate]
inhibition of parasitemia compared to PBS-treated controls (Plasmodium chabaudi [1]; A/J mice, day 4 (FIG. 4A)): ~20%
inhibition of parasitemia compared to PBS-treated controls (Plasmodium chabaudi [1]; A/J mice, day 5 (FIG. 4A)): 40%
inhibition of parasitemia replication (Plasmodium chabaudi [1]; A/J mice, ART 0.1 and 0.2 mg/kg combined with Cys 170 mg/kg (FIG. 4C)): 60-75%
inhibition of parasitemia replication (Plasmodium chabaudi [1]; A/J mice, ART 0.1 and 0.2 mg/kg used alone (FIG. 4C)): < 10%
effect of addition of Cys on inhibition of parasitemia versus additive effect of the two compounds (Plasmodium chabaudi [1]; A/J mice): synergistic effect
potentiation of low-dose artesunate by Cys (Plasmodium chabaudi [1]; A/J mice, Cys 170 mg/kg with ART 0.05, 0.1, 0.2, 0.4 mg/kg (FIG. 4C)): ≥ 3 fold
Inhibition of parasitemia Day 4 (Plasmodium chabaudi [1]; [7]): 65* % PBS control
Inhibition of parasitemia Day 5 (Plasmodium chabaudi [1]; [7]): 56* % PBS control
Inhibition of parasitemia Day 4 (Plasmodium chabaudi [1]; [8]): 30 % PBS control
Inhibition of parasitemia Day 5 (Plasmodium chabaudi [1]; [8]): 20 % PBS control
Inhibition of parasitemia Day 4 (Plasmodium chabaudi [1]; [9]): 93 % PBS control
Inhibition of parasitemia Day 5 (Plasmodium chabaudi [1]; [9]): 80* % PBS control
Inhibition of parasitemia Day 4 (Plasmodium chabaudi [1]; [10]): 65 % PBS control
Inhibition of parasitemia Day 5 (Plasmodium chabaudi [1]; [10]): 43 % PBS control
symptoms of disease (ruffled fur, lethargy) (Plasmodium chabaudi [1]): fewer symptoms of disease
outward symptoms of disease (lethargy, ruffled fur) (Plasmodium chabaudi [2]; 30 mg/kg Art plus Cys 60 mg/kg): did not display any outward symptoms of disease
parasite levels (Plasmodium chabaudi [2]; 30 mg/kg Art plus Cys 60 mg/kg): under 12 % pRBC
parasite levels and peak compared to Art administered alone (Plasmodium chabaudi [2]; Art 1 or 30 mg/kg + Cys 60 mg/kg, 4 days): reduction in parasite levels and a delay in the peak
day until which mice survived (Plasmodium chabaudi [3]; ART 0.5 mg/kg + Cys 60 mg/kg): 9 days
day at which all mice succumbed to the infection (Plasmodium chabaudi [3]; ART 0.5 mg/kg alone): 8 days
survival (Plasmodium chabaudi [3]; ART 1.0 mg/kg + Cys 60 mg/kg): 100%
effect on infection (onset and peak of parasitemia) (Plasmodium chabaudi [3]; ART alone 0.5-10 mg/kg, dose-dependent): delay in the onset of parasitemia and a reduction of peak parasitemia
further reduction in parasitemia at day 6 (Plasmodium chabaudi [3]; Cys 60 mg/kg added to 0.5 mg/kg or 1 mg/kg ART): 60-70%
peak levels of parasitemia relative to the corresponding dose of ART alone (Plasmodium chabaudi [3]; Cys 60 mg/kg added to all ART doses tested): reduction of peak levels of parasitemia
reduction in parasitemia compared to PBS controls (Plasmodium chabaudi [4]; ART 0.5 mg/kg combined with Cys 170 mg/kg, days 4 and 5): 65-71%
Inhibition of parasitemia Day 4 (Plasmodium chabaudi [4]; [11]): 71* % PBS control
Inhibition of parasitemia Day 5 (Plasmodium chabaudi [4]; [11]): 65* % PBS control
Inhibition of parasitemia Day 4 (Plasmodium chabaudi [4]; artesunate 0.5 mg/kg alone): 29 % PBS control
Inhibition of parasitemia Day 5 (Plasmodium chabaudi [4]; artesunate 0.5 mg/kg alone): 21 % PBS control

C[C@@H]1CCC2[C@@H](C)C(=O)O[C@@H]3O[C@]4(C)CCC1C23OO4 (stereo partly drawn) [Artemisinin]
rise and absolute levels of parasitemia (days 6-8) versus Artemisinin alone (Plasmodium berghei ANKA; Artemisinin 5 or 10 mg/kg + Cysteamine i.p., days 0-3): delay in the rise of parasitemia
prolongation of survival over Artemisinin alone (Plasmodium berghei ANKA; cysteamine added to Artemisinin): 1 to 2 days
effect of adding cysteamine compared with doubling the dose of Artemisinin (Plasmodium berghei ANKA; two independent experiments (FIG. 8A, 8B)): comparable (FIG. 8A) or superior (FIG. 8B)

Source: patent US9278086B2, “Combination therapy and uses thereof for treatment and prevention of parasitic infection and disease” (The Royal Institution for the Advancement of …, priority 2010, dated 2016)
